This note sets out measurements from patent US6391826B1, “Optically active uracil compounds” (Sumitomo Chemical Company, Limited, priority 1998, dated 2002).

This assay deals with common cocklebur (Xanthium strumarium). As to the kind of experiment: Test Example 1: foliar treatment on upland fields. The arrangement: key: “0” means that there was no or little difference in the degree of germination or growth between the treated and the untreated tested plants at the time of examination; “5” means that the test plants died complete or their germination or growth was completely inhibited. The assay is classed as in vivo. The settings on record: 1 g/ha active ingredient; foliar spray on 21-day plants, 1% Agri-Dex; examined after 21 days; index 0-5. The procedure:
Foliar Treatment on Upland Fields
Plastic pots which have an area of (26.5×19)cm^2 and a depth of 7 cm were filled with upland soil, seeded with common cocklebur (Xanthium strumarium) and were given 21 days to grow in a greenhouse. Each of the test compounds was formulated into emulsifiable concentrates according to Formulation Example 2, which was diluted with a designated amount of water containing 1% Agri-Dex (adjuvant produced by Helena Chemical Company), and such was uniformly sprayed over the foliage of the test plants with a sprayer at a volume of 1000 liters per hectare. After the application, the test plants were grown in the greenhouse for 21 days, and the herbicidal activity was examined.

As for `COC(=O)[C@@H](C)Oc1cc(-n2c(=O)cc(C(F)(F)F)n(C)c2=O)c(F)cc1Cl` [Present Compound 1, methyl (2R)-2-[2-chloro-4-fluoro-5-[3-methyl-2,6-dioxo-4-(trifluoromethyl)-1,2,3,6-tetrahydropyrimidin-1-yl]phenoxy]propionate], the “Herbicidal Activity Common Cocklebur” value turned out to be 5.
